Laboratory results: patent US9180155B2, “Compositions from Nigella sativa” (Bio Nexus, Ltd, priority 2013, dated 2015)

Columns and labels:
Caco-2 monolayers = experiment: LPS/H2O2-mediated loss of TEER in Caco-2 monolayers; assay type: cell-based, human; details: LPS/H2O2 control = 100, 3 h; μg TQ equivalents/mL: Thymoquinone 5.0, NS8 0.11, NS9 0.99, NS10 0.012, NSSpent#2 0.0005; NSSpent#1 5 μg/mL; listed as TQ
Excerpt: The protocol for growing and differentiation the human Caco-2 colon andenocarcinoma cells was a modification of Protocol 3 as described by Yamashita et al. [[…]., and Furuyama, Y. 2002) New and better protocols for a short-term Caco-2 cell culture system, J Pharm Sci 91, 669-679]. Caco-2 Human Colon Adenocarcinoma cells were obtained from ATCC (Rockville, Md.; catalog #HTB-37) and maintained in a growth media: DMEM (Dulbecco's Modified Eagles Medium 1×) containing L-glutamine, glucose; Cellgro catalog #35-010CV with the following additions: (1) Penicillin (5,000 IU/mL)/Streptomycin (5,000 μg/mL) Cellgro catalog #30-001C1, (2) 10% FBS-Fetal Bovine Serum, Characterized; Hyclone catalog #SH30071.3, and (3) 1% NEAA-Non Essential Amino Acids; Cellgro catalog #25-025-CI; cells were cultured at 37 C in a humidified air-5% CO2 atmosphere in T175 flasks. BIOCOAT^R HTS Caco-2 Assay System kits (Becton Dickinson, N.J.; catalog #354801) consisting of 24-well fibrillar collagen coated inserts and feeder trays were used in all experiments and plated as follows. Media was removed from the T175 flasks and cells were washed with 10 mLs PBS (phosphate buffered saline 1× without Ca^++, without Mg^++; Cellgro #25-053-CI). […]

C2C12 myocytes = experiment: Lipolysis (glycerol assay) in C2C12 myocytes; assay type: cell-based, murine; details: 5 or 2.5 μg/mL (FIG. 10)
Procedure: Culture and treatment of 3T3-L1 adipocytes and C2C12 myocytes was as described in Example 5. Concentrations of the forskolin positive control and test materials are listed in FIG. 9 for adipocytes and FIG. 10 for myocytes. Free fatty acid release from 3T3-L1 adipocytes or C2C12 myocytes was quantified by measuring glycerol secretion into the medium. Glycerol was measured spectrophotometrically using the Free Glycerol Determination Kit ([…], Sigma) and an EL 312e Microplate BIO-KINETICS spectrophotometer (BioTek, Winooski, Vt.). Glycerol release from adipocytes and myocytes was expressed, respectively, as the percent increase in free fatty acid secretion (FIG. 9) and relative glycerol content (glycerol index FIG. 10) ±95% confidence intervals of eight observations for one of three representative experiments.

CC1=CC(=O)C(C(C)C)=CC1=O [Thymoquinone, thymoquinone]
Relative Loss of TEER (Caco-2 monolayers): no effect
free fatty acid release in myocytes (C2C12 myocytes): induced free fatty acid release
